Reference: patent US20230414778A1, “COMBINATION OF ANTIBODY-DRUG CONJUGATE WITH ANTI-SIRPalpha ANTIBODY” (DAIICHI SANKYO COMPANY, LIMITED, priority 2020, published 2023)

Columns and labels:
CT26.WT cells = assay: Evaluation of in vivo ICD induction (vaccination effect, re-challenge); set-up: species or system BALB/c mice; conditions: mice inoculated with drug-treated CT26.WT cells, n=6
Experimental: (§1) Cells of mouse colorectal cancer cell line CT26.WT were seeded in a cell-culture flask and cultured overnight. The supernatant was removed and the cells were washed twice with PBS. To induce ICD, compound (A) (4 μM) or MTX (1 μM) was added in a RPMI1640 culture solution containing 10% FBS (R10). Twenty four hours later, HMGB1 in the culture supernatant was measured in accordance with the method shown in Example 1 in order to confirm ICD induction.
For evaluating in vivo ICD, the culture supernatant was removed from each of the culture flasks treated with drugs and the cells were washed twice with PBS, and then cells were collected. The supernatant was removed and the cells were washed once with PBS to prepare a suspension containing 5.0×10^6 cells/mL. As a control, a suspension was prepared by adding CT26.WT cells, which were cultured in a RPMI1640 culture solution containing 10% FBS without a drug, in an amount of 5.0×10^6 cells/mL, in the same manner as above. After centrifugation, the supernatant was removed. The cells were subjected to a freeze-thaw process repeatedly three times and suspended again in PBS to obtain Necrotic cell death (NCD) cells.
The cells (5.0×10^6 cells) of each group mentioned above were subcutaneously inoculated into the right axilla of each of female 6 week-old BALB/c mice (BALB/c AnNCrlCrlj) (bred by CHARLES RIVER LABORATORIES JAPAN, INC.) (inoculation, Day 0). An anti-SIRPα antibody (clone: 5C12) or an anti-CD47 antibody (clone: MIAP410, manufactured by Bio X Cell, Inc.) was intraperitoneally administered at a dose of 10 mg/kg on Day 1 and 5 (two times in total). As a control, the same amount of PBS was administered. Seven days later, CT26.WT cells (3.0×10^6 cells) not treated with a drug were subcutaneously inoculated into the left axilla of each of the mice (re-challenge, Day 0). On Day 14, tumor volumes were measured to evaluate vaccination effect. Note that the number of mice per group was 6. The results of the NCD-PBS group and individual groups were compared in accordance with the Dunnett's test, P value was expressed to four decimal places. The results satisfying P<0.05 (two-sided test) were determined as being significant.

[1] = system: mouse colorectal cancer cell line CT26.WT; assay: ICD induction evaluation (in vitro): HMGB1 in culture supernatant (ELISA); type: cell-based; conditions: for release of HMGB1, maximum, relative to control: CT26.WT culture supernatant after 24 hours, MTX 0.4-6 μM vs control (0 μM), compound (A) 1-16 μM vs R10 or R10-DMSO; for HMGB1 released in the culture supernatant (confirmation of ICD induction): Example 3, CT26.WT, compound (A) 4 μM or MTX 1 μM, 24 hours
Experimental: In cancer cells treated with different compounds, the ATP level, and the expression level of HMGB1, which serve as an index of Immunogenic cell death (ICD), were measured. Cells of mouse colorectal cancer cell line CT26.WT were seeded in a 6-well plate and cultured overnight. After the supernatant was removed, the cells were washed twice with PBS. Compound (A) was dissolved in RPMI1640 culture solution containing 10% FBS (R10) to prepare solutions having a final concentration of 0, 1, 4 and 16 μM. As a positive control, Mitoxantrone (MTX) was dissolved in DMSO and added at a final concentration of 0.4, 1.5 and 6 μM. To the control (0 μM) herein, DMSO was added in the same amount as that of compound (A) (R10-DMSO). Twenty four hours later, the culture supernatant was collected, and the levels of ATP and HMGB1 were measured. The level of ATP was measured by adding the culture supernatant in a 96-well white plate, adding the same amount of Back titer-Glo (manufactured by Promega Corporation) and determining the amount of luminescence by a plate reader. The level of HMGB1 was detected by a HMGB1 ELISA-kit (manufactured by Shino-Test Corporation) in accordance with the Sandwich ELISA method. In the plate provided in the kit, a test buffer was added, and thereafter, an HMGB1 standard solution diluted with the test buffer and the culture supernatant were added thereto. It was allowed to stand at 37° C. for 24 hours. After the supernatant was removed and the cells were washed five times with PBS/Tween 20 (200 μL/well), a secondary-antibody solution provided in the kit was added in an amount of 100 μL/well. It was allowed to stand at room temperature for 2 hours. After the supernatant was removed, the cells were washed five times with PBS/Tween 20 (200 μL/well). Thereafter, a color-producing solution provided in the kit was added in an amount of 100 μL/well. The plate was allowed to stand at room temperature for 30 minutes. A stop solution (100 μL/well) was added and stirred. The absorbance at 405 nm was measured by a plate reader. The results of the control group and compound (A) group were compared in accordance with the Dunnett's test. P value was expressed to four decimal places. The results satisfying P<0.05 (two-sided test) were determined as being significant.
as §1

[2] = system: mouse colorectal cancer cell line CT26.WT; assay: ICD induction evaluation (in vitro): ATP in culture supernatant; type: cell-based; conditions: CT26.WT culture supernatant after 24 hours; MTX 0.4-6 μM vs control (0 μM); compound (A) 1-16 μM vs R10 or R10-DMSO
Experimental: In cancer cells treated with different compounds, the ATP level, and the expression level of HMGB1, which serve as an index of Immunogenic cell death (ICD), were measured. Cells of mouse colorectal cancer cell line CT26.WT were seeded in a 6-well plate and cultured overnight. After the supernatant was removed, the cells were washed twice with PBS. Compound (A) was dissolved in RPMI1640 culture solution containing 10% FBS (R10) to prepare solutions having a final concentration of 0, 1, 4 and 16 μM. As a positive control, Mitoxantrone (MTX) was dissolved in DMSO and added at a final concentration of 0.4, 1.5 and 6 μM. To the control (0 μM) herein, DMSO was added in the same amount as that of compound (A) (R10-DMSO). Twenty four hours later, the culture supernatant was collected, and the levels of ATP and HMGB1 were measured. The level of ATP was measured by adding the culture supernatant in a 96-well white plate, adding the same amount of Back titer-Glo (manufactured by Promega Corporation) and determining the amount of luminescence by a plate reader. The level of HMGB1 was detected by a HMGB1 ELISA-kit (manufactured by Shino-Test Corporation) in accordance with the Sandwich ELISA method. […] The absorbance at 405 nm was measured by a plate reader. […] The results satisfying P<0.05 (two-sided test) were determined as being significant.

[3] = PBS administration, re-challenge, Day 14
[4] = plus anti-SIRPα antibody (clone 5C12) 10 mg/kg i.p. Day 1 and 5

SMILES	number of CR individuals (engraftment of re-challenged tumor rejected) (CT26.WT cells; [3])	number of CR individuals (engraftment of re-challenged tumor rejected) (CT26.WT cells; plus anti-CD47 antibody (clone MIAP410) 10 mg/kg i.p. Day 1 and 5)	number of CR individuals (engraftment of re-challenged tumor rejected) (CT26.WT cells; [4])	release of HMGB1, maximum, relative to control [1]	HMGB1 released in the culture supernatant (confirmation of ICD induction) [1]	release of ATP, maximum, relative to control [2]
CC[C@@]1(O)C(=O)OCc2c1cc1n(c2=O)Cc2c-1nc1cc(F)c(C)c3c1c2[C@@H](NC(=O)CO)CC3 [compound (A)]	5/6	all cases show CR	all cases show CR	about 4.6 times	released	about 4.6 times
O=C1c2c(O)ccc(O)c2C(=O)c2c(NCCNCCO)ccc(NCCNCCO)c21 [MTX, Mitoxantrone, reference compound]	2/6	–	4/6	about 3 times	released	about 4 times
